Test results taken from article PMC5218480 (PLoS ONE, 2017).

System: MV-4-11 cells
Test: Gene expression microarray analysis (Affymetrix PrimeView) and GSEA
Assay type: cell-based, human
Set-up: RFU PODN (11730768_x_at) / Fold change /veh PODN (11730768_x_at) / RFU LINC00158 (11744669_a_at) / Fold change /veh LINC00158 (11744669_a_at) / RFU DUSP10 (11751237_a_at) / Fold change /veh DUSP10 (11751237_a_at) / RFU ID3 (11757404_x_at) / Fold change /veh ID3 (11757404_x_at) / RFU PLEKHG5 (11737974_s_at) / Fold change /veh PLEKHG5 (11737974_s_at) / RFU LRRC4B (11730491_at) / Fold change /veh LRRC4B (11730491_at) / RFU GIMAP4 (11747438_a_at) / Fold change /veh GIMAP4 (11747438_a_at) / RFU KRT8 (11758183_x_at) / Fold change /veh KRT8 (11758183_x_at) / RFU CNN1 (11734310_a_at) / Fold change /veh CNN1 (11734310_a_at) / RFU VPS37D (11726825_at) / Fold change /veh VPS37D (11726825_at) / RFU C10orf10 (11716522_x_at) / Fold change /veh C10orf10 (11716522_x_at) / RFU KIR2DL2 /// KIR2DL4 /// KIR2DL5A /// KIR2DL5B /// KIR2DS1 /// KIR2DS2 /// KIR2DS3 /// KIR2DS4 /// KIR3DL3 /// KIR3DL3 /// KIR3DS1 (11738374_at) / Fold change /veh KIR2DL2 /// KIR2DL4 /// KIR2DL5A /// KIR2DL5B /// KIR2DS1 /// KIR2DS2 /// KIR2DS3 /// KIR2DS4 /// KIR3DL3 /// KIR3DL3 /// KIR3DS1 (11738374_at) / RFU C1QL1 (11718748_at) / Fold change /veh C1QL1 (11718748_at) / RFU TMPRSS4 (11747572_a_at) / Fold change /veh TMPRSS4 (11747572_a_at) / RFU HAMP (11756126_x_at) / Fold change /veh HAMP (11756126_x_at) / RFU RNFT2 (11725882_a_at) / Fold change /veh RNFT2 (11725882_a_at) / RFU NR4A2 (11747474_a_at) / Fold change /veh NR4A2 (11747474_a_at) / RFU ABCC12 (11746883_a_at) / Fold change /veh ABCC12 (11746883_a_at) / RFU TMEM136 (11760407_x_at) / Fold change /veh TMEM136 (11760407_x_at) / RFU CLDN22 /// WWC2 (11732394_at) / Fold change /veh CLDN22 /// WWC2 (11732394_at) / RFU HLA-DPB1 (11760878_x_at) / Fold change /veh HLA-DPB1 (11760878_x_at) / RFU SPINT1 (11716480_a_at) / Fold change /veh SPINT1 (11716480_a_at) / RFU GAP43 (11754022_s_at) / Fold change /veh GAP43 (11754022_s_at) / RFU A4GNT (11735810_at) / Fold change /veh A4GNT (11735810_at) / RFU PRB3 (11715151_x_at) / Fold change /veh PRB3 (11715151_x_at) / RFU TUBB4B (11761932_at) / Fold change /veh TUBB4B (11761932_at) / RFU CAPN14 (11732068_a_at) / Fold change /veh CAPN14 (11732068_a_at) / RFU TMCC2 (11721928_a_at) / Fold change /veh TMCC2 (11721928_a_at) / RFU IRGQ (11745062_a_at) / Fold change /veh IRGQ (11745062_a_at) / RFU FAM174B (11720279_a_at) / Fold change /veh FAM174B (11720279_a_at) / RFU TMPRSS4 (11748680_a_at) / Fold change /veh TMPRSS4 (11748680_a_at) / RFU FAM212B (11763350_a_at) / Fold change /veh FAM212B (11763350_a_at) / RFU PLEKHG5 (11743358_a_at) / Fold change /veh PLEKHG5 (11743358_a_at) / RFU ZSCAN30 (11745921_a_at) / Fold change /veh ZSCAN30 (11745921_a_at) / RFU CMKLR1 (11741424_a_at) / Fold change /veh CMKLR1 (11741424_a_at) / RFU LOC101060620 /// MAPK8IP1 (11723275_at) / Fold change /veh LOC101060620 /// MAPK8IP1 (11723275_at) / RFU SPTSSB (11747773_x_at) / Fold change /veh SPTSSB (11747773_x_at) / RFU PRSS12 (11739890_at) / Fold change /veh PRSS12 (11739890_at) / RFU BIN1 (11741810_x_at) / Fold change /veh BIN1 (11741810_x_at) / RFU WNT11 (11732464_a_at) / Fold change /veh WNT11 (11732464_a_at) / RFU C10orf10 (11716521_a_at) / Fold change /veh C10orf10 (11716521_a_at) / RFU C5orf56 (11738089_at) / Fold change /veh C5orf56 (11738089_at) / RFU CYB561 (11721691_x_at) / Fold change /veh CYB561 (11721691_x_at) / RFU ANKRD19P (11752326_a_at) / Fold change /veh ANKRD19P (11752326_a_at) / RFU OR2T12 /// OR2T33 /// OR2T8 (11738714_s_at) / Fold change /veh OR2T12 /// OR2T33 /// OR2T8 (11738714_s_at) / RFU VCAN (11748164_a_at) / Fold change /veh VCAN (11748164_a_at) / RFU JSRP1 (11732532_at) / Fold change /veh JSRP1 (11732532_at) / RFU KRTAP10-11 (11738290_x_at) / Fold change /veh KRTAP10-11 (11738290_x_at) / RFU MYO3A (11730013_a_at) / Fold change /veh MYO3A (11730013_a_at) / RFU EBF3 (11725865_a_at) / Fold change /veh EBF3 (11725865_a_at) / RFU CAMK2N1 (11719241_x_at) / Fold change /veh CAMK2N1 (11719241_x_at) / RFU C5orf56 (11738088_a_at) / Fold change /veh C5orf56 (11738088_a_at) / RFU OLFML3 (11715873_a_at) / Fold change /veh OLFML3 (11715873_a_at) / RFU LOC100653217 /// NTM (11731650_a_at) / Fold change /veh LOC100653217 /// NTM (11731650_a_at) / RFU MAPK11 (11762145_a_at) / Fold change /veh MAPK11 (11762145_a_at) / RFU FIZ1 (11724087_x_at) / Fold change /veh FIZ1 (11724087_x_at) / RFU OASL (11726364_x_at) / Fold change /veh OASL (11726364_x_at) / RFU SOX15 (11748057_x_at) / Fold change /veh SOX15 (11748057_x_at) / RFU CD79A (11719716_a_at) / Fold change /veh CD79A (11719716_a_at) / RFU HIST1H1D (11736915_at) / Fold change /veh HIST1H1D (11736915_at) / RFU CASKIN2 (11723855_a_at) / Fold change /veh CASKIN2 (11723855_a_at) / RFU LOC730098 (11760151_x_at) / Fold change /veh LOC730098 (11760151_x_at) / RFU OR4N2 (11742367_at) / Fold change /veh OR4N2 (11742367_at) / RFU PRRT2 (11749266_a_at) / Fold change /veh PRRT2 (11749266_a_at) / RFU SNX32 (11753110_a_at) / Fold change /veh SNX32 (11753110_a_at) / RFU CDHR5 (11726645_a_at) / Fold change /veh CDHR5 (11726645_a_at) / RFU RCAN1 (11760418_a_at) / Fold change /veh RCAN1 (11760418_a_at) / RFU FAM167A (11723789_a_at) / Fold change /veh FAM167A (11723789_a_at) / RFU FAM26E (11764081_at) / Fold change /veh FAM26E (11764081_at) / RFU ISYNA1 (11749810_s_at) / Fold change /veh ISYNA1 (11749810_s_at) / RFU ACY1 (11761880_at) / Fold change /veh ACY1 (11761880_at) / RFU 11764098_at / Fold change /veh 11764098_at / RFU SAMD14 (11745864_x_at) / Fold change /veh SAMD14 (11745864_x_at) / RFU NPB (11741838_a_at) / Fold change /veh NPB (11741838_a_at) / RFU TMPRSS6 (11731388_a_at) / Fold change /veh TMPRSS6 (11731388_a_at) / RFU KRTAP10-2 (11738614_at) / Fold change /veh KRTAP10-2 (11738614_at) / RFU ARHGAP8 /// PRR5-ARHGAP8 (11727945_x_at) / Fold change /veh ARHGAP8 /// PRR5-ARHGAP8 (11727945_x_at) / RFU KRTAP5-7 /// NADSYN1 (11734609_at) / Fold change /veh KRTAP5-7 /// NADSYN1 (11734609_at) / RFU RASL12 (11751679_a_at) / Fold change /veh RASL12 (11751679_a_at) / RFU CDKN2B (11736163_a_at) / Fold change /veh CDKN2B (11736163_a_at) / RFU PRF1 (11729649_at) / Fold change /veh PRF1 (11729649_at) / RFU, ZNF638 /// ZNF638-IT1 / Fold change vs veh, ZNF638 /// ZNF638-IT1 / RFU, PANK3 / Fold change vs veh, PANK3 / RFU, SH3YL1 / Fold change vs veh, SH3YL1 / RFU, ZEB2 / Fold change vs veh, ZEB2 / RFU, NRIP1 / Fold change vs veh, NRIP1 / RFU, PTTG1IP / Fold change vs veh, PTTG1IP / RFU, CAPN2 / Fold change vs veh, CAPN2 / RFU, MED14 / Fold change vs veh, MED14 / RFU, SNORA58 / Fold change vs veh, SNORA58 / RFU, C1orf63 / Fold change vs veh, C1orf63 / RFU, LRRFIP1 / Fold change vs veh, LRRFIP1 / RFU, NDUFAF7 / Fold change vs veh, NDUFAF7 / RFU, SLC12A2 / Fold change vs veh, SLC12A2 / RFU, IBTK / Fold change vs veh, IBTK / RFU, ESF1 / Fold change vs veh, ESF1 / Fold change vs veh, TMEM50B / RFU, TAOK1 / Fold change vs veh, TAOK1 / RFU, ACBD3 / Fold change vs veh, ACBD3 / RFU, TMA16 / Fold change vs veh, TMA16 / RFU, RWDD3 / Fold change vs veh, RWDD3 / RFU, BCAT1 / Fold change vs veh, BCAT1 / RFU, EDEM3 / Fold change vs veh, EDEM3 / RFU, TMEM33 / Fold change vs veh, TMEM33 / RFU, WDR75 / Fold change vs veh, WDR75 / RFU, AHCTF1 / Fold change vs veh, AHCTF1 / RFU, TFRC / Fold change vs veh, TFRC / RFU, ZDHHC17 / Fold change vs veh, ZDHHC17 / RFU, NOM1 / Fold change vs veh, NOM1 / RFU, ARL8B / Fold change vs veh, ARL8B / RFU, ZBTB11 / Fold change vs veh, ZBTB11 / RFU, TAMM41 / Fold change vs veh, TAMM41 / RFU, KIAA1704 /// LOC100996395 / Fold change vs veh, KIAA1704 /// LOC100996395 / RFU, ING1 / Fold change vs veh, ING1 / RFU, TRMT61B / Fold change vs veh, TRMT61B / RFU, FUBP3 / Fold change vs veh, FUBP3 / RFU, TP53 / Fold change vs veh, TP53 / RFU, TNKS2 / Fold change vs veh, TNKS2 / RFU, ZFP14 / Fold change vs veh, ZFP14 / RFU, ACTR2 / Fold change vs veh, ACTR2 / RFU, PPP3R1 / Fold change vs veh, PPP3R1 / RFU, PIK3R1 / Fold change vs veh, PIK3R1 / RFU, HNRNPA1 / Fold change vs veh, HNRNPA1 / RFU, RNF170 / Fold change vs veh, RNF170 / RFU, ZNF28 / Fold change vs veh, ZNF28 / RFU, RNGTT / Fold change vs veh, RNGTT / RFU, OGT / Fold change vs veh, OGT / RFU, BRD1 / Fold change vs veh, BRD1 / RFU, MARS / Fold change vs veh, MARS / RFU, ZNF655 / Fold change vs veh, ZNF655 / RFU, FAHD1 / Fold change vs veh, FAHD1 / RFU, BDP1 / Fold change vs veh, BDP1 / RFU, LRRCC1 / Fold change vs veh, LRRCC1 / RFU, ARID1A / Fold change vs veh, ARID1A / RFU, ZNF146 / Fold change vs veh, ZNF146 / RFU, ZNF330 / Fold change vs veh, ZNF330 / RFU, GPN3 / Fold change vs veh, GPN3 / RFU, C9orf123 / Fold change vs veh, C9orf123 / RFU, N4BP2L2 / Fold change vs veh, N4BP2L2 / RFU, ARFIP1 / Fold change vs veh, ARFIP1 / RFU, FAM179B / Fold change vs veh, FAM179B / RFU, BCL10 / Fold change vs veh, BCL10 / RFU, UHRF1BP1L / Fold change vs veh, UHRF1BP1L / RFU, BET1 / Fold change vs veh, BET1 / RFU, CNOT2 / Fold change vs veh, CNOT2 / RFU, ZNF268 / Fold change vs veh, ZNF268 / Fold change vs veh, ZNF507 / RFU, DGCR2 / Fold change vs veh, DGCR2 / RFU, WDSUB1 / Fold change vs veh, WDSUB1 / Fold change vs veh, HSP90B1 /// MIR3652 / RFU, ADSS / Fold change vs veh, ADSS / RFU, GK / Fold change vs veh, GK / RFU, ZNF148 / Fold change vs veh, ZNF148 / RFU, TAF9 / Fold change vs veh, TAF9 / RFU, SLC1A5 / Fold change vs veh, SLC1A5 / RFU, SLMO2 / Fold change vs veh, SLMO2 / RFU, ABCC4 / Fold change vs veh, ABCC4 / RFU, LOC101060439 /// RAP1B / Fold change vs veh, LOC101060439 /// RAP1B / RFU, RFX7 / Fold change vs veh, RFX7 / RFU, GTPBP10 / Fold change vs veh, GTPBP10 / RFU, CNEP1R1 / Fold change vs veh, CNEP1R1 / RFU, BIVM-ERCC5 /// ERCC5 / Fold change vs veh, BIVM-ERCC5 /// ERCC5 / RFU, ILF3 / Fold change vs veh, ILF3 / RFU 11762660_at / Fold change /veh 11762660_at / RFU VCAN (11757783_s_at) / Fold change /veh VCAN (11757783_s_at) / RFU DDX43 (11728927_at) / Fold change /veh DDX43 (11728927_at) / RFU KRT8 (11758188_x_at) / Fold change /veh KRT8 (11758188_x_at) / RFU NKD1 (11759106_at) / Fold change /veh NKD1 (11759106_at) / RFU SRD5A1 (11742802_a_at) / Fold change /veh SRD5A1 (11742802_a_at) / RFU TPSAB1 /// TPSB2 (11721975_s_at) / Fold change /veh TPSAB1 /// TPSB2 (11721975_s_at) / RFU GSTM3 (11746129_a_at) / Fold change /veh GSTM3 (11746129_a_at) / RFU IL23R (11737362_x_at) / Fold change /veh IL23R (11737362_x_at) / RFU TMEM51 (11727254_a_at) / Fold change /veh TMEM51 (11727254_a_at) / RFU PIWIL2 (11732686_x_at) / Fold change /veh PIWIL2 (11732686_x_at) / RFU ORM1 (11744905_x_at) / Fold change /veh ORM1 (11744905_x_at) / RFU CCDC152 (11743942_at) / Fold change /veh CCDC152 (11743942_at) / RFU ECM1 (11717891_a_at) / Fold change /veh ECM1 (11717891_a_at) / RFU IL23R (11748794_a_at) / Fold change /veh IL23R (11748794_a_at) / RFU TNFAIP8L3 (11732012_x_at) / Fold change /veh TNFAIP8L3 (11732012_x_at) / RFU MBOAT4 (11741988_at) / Fold change /veh MBOAT4 (11741988_at) / RFU 11764193_at / Fold change /veh 11764193_at / RFU TMEM53 (11763286_at) / Fold change /veh TMEM53 (11763286_at) / RFU MAGEB2 (11727129_at) / Fold change /veh MAGEB2 (11727129_at) / RFU TMEM200A (11744735_a_at) / Fold change /veh TMEM200A (11744735_a_at) / RFU CCDC152 (11751479_a_at) / Fold change /veh CCDC152 (11751479_a_at) / RFU FAM211A (11726209_a_at) / Fold change /veh FAM211A (11726209_a_at) / RFU RGS16 (11746705_a_at) / Fold change /veh RGS16 (11746705_a_at) / RFU VCAN (11755009_s_at) / Fold change /veh VCAN (11755009_s_at) / RFU RHOB (11743442_s_at) / Fold change /veh RHOB (11743442_s_at) / RFU RGS16 (11720943_a_at) / Fold change /veh RGS16 (11720943_a_at) / RFU RGS16 (11720944_at) / Fold change /veh RGS16 (11720944_at) / RFU, VPS4B / Fold change vs veh, VPS4B / RFU, CREB1 / Fold change vs veh, CREB1 / RFU, DNAJC13 / Fold change vs veh, DNAJC13 / RFU, GNAQ / Fold change vs veh, GNAQ / RFU, CDK5R1 / Fold change vs veh, CDK5R1 / RFU, ZRANB3 / Fold change vs veh, ZRANB3 / RFU, CUL4A / Fold change vs veh, CUL4A / RFU, CCNY / Fold change vs veh, CCNY / RFU, UFL1 / Fold change vs veh, UFL1 / RFU, COG3 / Fold change vs veh, COG3 / RFU, DIAPH2 / Fold change vs veh, DIAPH2 / RFU, SKA2 / Fold change vs veh, SKA2 / RFU, AFF3 / Fold change vs veh, AFF3 / RFU, LMF1 / Fold change vs veh, LMF1 / RFU, IPO11 / Fold change vs veh, IPO11 / RFU, DFFB / Fold change vs veh, DFFB / RFU, FOXP1 / Fold change vs veh, FOXP1 / RFU, CARD8 / Fold change vs veh, CARD8 / RFU, STRN3 / Fold change vs veh, STRN3 / RFU, ADK / Fold change vs veh, ADK / RFU, RASSF2 / Fold change vs veh, RASSF2 / RFU, WIPF1 / Fold change vs veh, WIPF1 / RFU, LARP1B / Fold change vs veh, LARP1B / RFU, RASA1 / Fold change vs veh, RASA1 / RFU, RB1 / Fold change vs veh, RB1 / RFU, PPFIA1 / Fold change vs veh, PPFIA1 / RFU, MAT2A / Fold change vs veh, MAT2A / RFU, CCT5 / Fold change vs veh, CCT5 / RFU, WDR92 / Fold change vs veh, WDR92 / RFU, CUX1 / Fold change vs veh, CUX1 / RFU, TTC7A / Fold change vs veh, TTC7A / RFU, TMEM135 / Fold change vs veh, TMEM135 / RFU, DEPTOR / Fold change vs veh, DEPTOR / RFU, CPM / Fold change vs veh, CPM / RFU, DNAJB6 / Fold change vs veh, DNAJB6 / RFU, CACNA2D3 / Fold change vs veh, CACNA2D3 / RFU, DTX4 / Fold change vs veh, DTX4 / RFU, TFCP2 / Fold change vs veh, TFCP2 / RFU, GMCL1 /// GMCL1P1 / Fold change vs veh, GMCL1 /// GMCL1P1 / RFU, AEBP2 / Fold change vs veh, AEBP2 / RFU, SNHG1 /// SNORD22 /// SNORD25 /// SNORD26 /// SNORD27 /// SNORD28 /// SNORD29 /// SNORD31 / Fold change vs veh, SNHG1 /// SNORD22 /// SNORD25 /// SNORD26 /// SNORD27 /// SNORD28 /// SNORD29 /// SNORD31 / Fold change (Aza/veh), C12orf56 (ProbeSet 11735607_a_at) / Fold change (ACY-1035/veh), C12orf56 (ProbeSet 11735607_a_at) / Fold change (Aza/veh), FGFR1OP (ProbeSet 11751329_s_at) / Fold change (ACY-1035/veh), FGFR1OP (ProbeSet 11751329_s_at) / Fold change (Aza/veh), VPS36 (ProbeSet 11739960_a_at) / Fold change (ACY-1035/veh), VPS36 (ProbeSet 11739960_a_at) / RFU SYPL1 (11715823_x_at) / Fold change /veh SYPL1 (11715823_x_at) / RFU IGFBP7 (11715501_s_at) / Fold change /veh IGFBP7 (11715501_s_at) / RFU REEP3 (11722064_at) / Fold change /veh REEP3 (11722064_at) / RFU IGLL1 (11728026_x_at) / Fold change /veh IGLL1 (11728026_x_at): dose or concentration left out as unconfirmed
Conditions: MV-4-11 cells, 48 hours

Nc1ncn([C@@H]2O[C@H](CO)[C@@H](O)[C@H]2O)c(=O)n1 [azacitidine]
RFU TMPRSS4 (11748680_a_at): 47.70 RFU
